Results reported in ChEMBL document CHEMBL5096238 (J Med Chem, 2022).

What was measured:
[1] = tested on: Hs746T; assay: cells; details: Homo sapiens, 120 h
[2] = molecular target: T1, Hepatocyte growth factor receptor (Homo sapiens, UniProt P08581); assay: Inhibition of N-terminal His/SUMO tagged wild type human c-Met (1038 to 1346 residues) transfected in Escherichia coli using Tyr06 peptide as substrate incubated for 1 hr in presence of ATP by FRET-based Z'-Lyte assay
[3] = tested on: BaF3; assay: Induction of apoptosis in mouse BaF3 cells harboring wild type Tpr-Met fusion protein assessed as viable cells at 10 nM incubated for 48 hrs by Annexin V/7-AAD staining based flow cytometry analysis (reference value: 89.76%); type: functional; details: read-out: Activity
[4] = molecular target: T2, Tyrosine-protein kinase receptor UFO (Homo sapiens, UniProt P30530); assay: Inhibition of AXL (unknown origin)
T2 sequence (P30530 whole entry): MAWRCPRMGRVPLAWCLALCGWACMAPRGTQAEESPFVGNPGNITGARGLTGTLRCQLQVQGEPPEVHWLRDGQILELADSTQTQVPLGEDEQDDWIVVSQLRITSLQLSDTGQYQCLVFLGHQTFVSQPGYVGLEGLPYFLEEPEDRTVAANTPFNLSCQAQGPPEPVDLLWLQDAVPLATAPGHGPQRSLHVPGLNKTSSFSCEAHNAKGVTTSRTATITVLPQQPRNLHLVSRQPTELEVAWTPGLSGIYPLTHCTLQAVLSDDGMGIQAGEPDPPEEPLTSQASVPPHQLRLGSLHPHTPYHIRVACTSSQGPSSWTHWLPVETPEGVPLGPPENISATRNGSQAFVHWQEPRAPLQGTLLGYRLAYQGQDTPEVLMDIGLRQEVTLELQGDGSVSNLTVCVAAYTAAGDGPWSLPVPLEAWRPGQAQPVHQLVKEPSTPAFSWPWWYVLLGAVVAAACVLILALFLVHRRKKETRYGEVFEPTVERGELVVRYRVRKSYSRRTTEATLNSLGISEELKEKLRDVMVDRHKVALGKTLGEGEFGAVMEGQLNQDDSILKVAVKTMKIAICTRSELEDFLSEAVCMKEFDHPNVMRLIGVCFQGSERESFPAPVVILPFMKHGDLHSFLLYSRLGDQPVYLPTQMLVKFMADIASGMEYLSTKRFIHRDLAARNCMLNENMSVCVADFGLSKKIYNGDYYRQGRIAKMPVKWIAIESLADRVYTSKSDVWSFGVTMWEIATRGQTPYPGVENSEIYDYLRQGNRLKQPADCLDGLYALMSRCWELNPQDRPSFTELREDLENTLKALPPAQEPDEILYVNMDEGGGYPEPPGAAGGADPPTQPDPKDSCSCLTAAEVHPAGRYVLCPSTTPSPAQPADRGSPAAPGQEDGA

[5] = Tmax in Sprague-Dawley rat at 10 mg/kg, po measured for 24 hrs by LC-MS/MS analysis; type: ADME, organism-based; details: in vivo
[6] = Half life in Sprague-Dawley rat at 2 mg/kg, iv measured for 24 hrs by LC-MS/MS analysis; type: ADME, organism-based; details: in vivo
[7] = AUC(0 to t) in Sprague-Dawley rat at 2 mg/kg, iv measured for 24 hrs by LC-MS/MS analysis; type: ADME, organism-based; set-up: time 24 hrs, dose 2 mg/kg, route iv; details: in vivo
[8] = molecular target: Cytochrome P450 2D6 (Homo sapiens, UniProt P10635); assay: Inhibition of CYP2D6 (unknown origin) in microsomes preincubated for 5 mins followed by NADPH addition by LC-MS/MS analysis; type: ADME, Microsome
[9] = Tmax in Sprague-Dawley rat at 2 mg/kg, iv measured for 24 hrs by LC-MS/MS analysis; type: ADME, organism-based; details: in vivo
[10] = molecular target: Hepatocyte growth factor receptor (Mus musculus) (UniProt P16056); details: BaF3, dose 1.1-30 nM, time 12.0 hrs
[11] = MRT (0 to t) in Sprague-Dawley rat at 2 mg/kg, iv measured for 24 hrs by LC-MS/MS analysis; type: ADME, organism-based; details: in vivo
[12] = Apparent volume of distribution in Sprague-Dawley rat at 2 mg/kg, iv measured for 24 hrs by LC-MS/MS analysis; type: ADME, organism-based; details: in vivo, read-out: Vz
[13] = MRT (0 to t) in Sprague-Dawley rat at 10 mg/kg, ip measured for 24 hrs by LC-MS/MS analysis; type: ADME, organism-based; details: in vivo
[14] = Cmax in Sprague-Dawley rat at 10 mg/kg, po measured for 24 hrs by LC-MS/MS analysis; type: ADME, organism-based; set-up: dose 10 mg/kg, time 24 hrs, route po; details: in vivo
[15] = Half life in Sprague-Dawley rat at 10 mg/kg, ip measured for 24 hrs by LC-MS/MS analysis; type: ADME, organism-based; details: in vivo
[16] = tested on: BaF3; assay: Induction of apoptosis in mouse BaF3 cells harboring wild type Tpr-Met fusion protein assessed as viable cells at 20 nM incubated for 48 hrs by Annexin V/7-AAD staining based flow cytometry analysis (reference value: 89.76%); type: functional; details: read-out: Activity
[17] = Tmax in Sprague-Dawley rat at 10 mg/kg, ip measured for 24 hrs by LC-MS/MS analysis; type: ADME, organism-based; details: in vivo
[18] = Oral bioavailability in Sprague-Dawley rat at 10 mg/kg measured for 24 hrs by LC-MS/MS analysis; type: ADME, organism-based; details: in vivo
[19] = tested on: BaF3; assay: Induction of apoptosis in mouse BaF3 cells harboring wild type Tpr-Met fusion protein assessed as viable cells at 40 nM incubated for 48 hrs by Annexin V/7-AAD staining based flow cytometry analysis (reference value: 89.76%); type: functional; details: read-out: Activity
[20] = Apparent permeability across apical to basolateral side in human Caco-2 cells at 10 uM incubated for 120 mins by LC-MS/MS analysis; type: ADME, cell-based
[21] = molecular target: Cytochrome P450 3A4 (Homo sapiens, UniProt P08684); assay: Inhibition of CYP3A4 (unknown origin) in microsomes sing testosterone as a substrate preincubated for 5 mins followed by NADPH addition by LC-MS/MS analysis; type: ADME, Microsome
[22] = molecular target: Voltage-gated inwardly rectifying potassium channel KCNH2 (Homo sapiens, UniProt Q12809); assay: Inhibition of hERG expressed in HEK293 cells by whole-cell patch clamp technique; type: toxicity, cell-based
[23] = molecular target: T1, Hepatocyte growth factor receptor; details: Hs746T, dose 1.1-30 nM, time 12.0 hrs
[24] = Bioavailability in Sprague-Dawley rat at 10 mg/kg, ip measured for 24 hrs by LC-MS/MS analysis; type: ADME, organism-based; details: in vivo
[25] = Cmax in Sprague-Dawley rat at 2 mg/kg, iv measured for 24 hrs by LC-MS/MS analysis; type: ADME, organism-based; set-up: dose 2 mg/kg, time 24 hrs, route iv; details: in vivo
[26] = AUC(0 to t) in Sprague-Dawley rat at 10 mg/kg, ip measured for 24 hrs by LC-MS/MS analysis; type: ADME, organism-based; set-up: dose 10 mg/kg, time 24 hrs, route ip; details: in vivo
[27] = Half life in Sprague-Dawley rat at 10 mg/kg, po measured for 24 hrs by LC-MS/MS analysis; type: ADME, organism-based; details: in vivo
[28] = Cmax in Sprague-Dawley rat at 10 mg/kg, ip measured for 24 hrs by LC-MS/MS analysis; type: ADME, organism-based; set-up: time 24 hrs, dose 10 mg/kg, route ip; details: in vivo
[29] = Clearance in Sprague-Dawley rat at 2 mg/kg, iv measured for 24 hrs by LC-MS/MS analysis; type: ADME, organism-based; details: in vivo
[30] = MRT (0 to t) in Sprague-Dawley rat at 10 mg/kg, po measured for 24 hrs by LC-MS/MS analysis; type: ADME, organism-based; details: in vivo
[31] = AUC(0 to t) in Sprague-Dawley rat at 10 mg/kg, po measured for 24 hrs by LC-MS/MS analysis; type: ADME, organism-based; set-up: time 24 hrs, dose 10 mg/kg, route po; details: in vivo
[32] = molecular target: Cytochrome P450 2C9 (Homo sapiens, UniProt P11712); assay: Inhibition of CYP2C9 (unknown origin) in microsomes preincubated for 5 mins followed by NADPH addition by LC-MS/MS analysis; type: ADME, Microsome
Chain of Cytochrome P450 2C9 (P11712 whole entry): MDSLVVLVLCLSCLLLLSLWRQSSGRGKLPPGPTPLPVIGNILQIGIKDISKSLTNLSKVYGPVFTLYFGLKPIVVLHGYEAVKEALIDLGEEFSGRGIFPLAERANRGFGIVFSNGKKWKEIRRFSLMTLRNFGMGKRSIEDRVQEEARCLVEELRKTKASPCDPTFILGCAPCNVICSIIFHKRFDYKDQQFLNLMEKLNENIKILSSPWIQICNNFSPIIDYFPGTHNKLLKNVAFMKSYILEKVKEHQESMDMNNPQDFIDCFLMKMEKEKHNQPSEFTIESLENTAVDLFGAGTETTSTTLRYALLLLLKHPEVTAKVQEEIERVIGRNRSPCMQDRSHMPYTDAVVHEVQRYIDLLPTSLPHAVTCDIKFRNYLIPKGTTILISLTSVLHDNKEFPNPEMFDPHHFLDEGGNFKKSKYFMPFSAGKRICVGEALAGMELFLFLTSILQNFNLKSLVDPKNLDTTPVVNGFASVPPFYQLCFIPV

T1 sequence (P08581 whole entry, the tested form may be a part): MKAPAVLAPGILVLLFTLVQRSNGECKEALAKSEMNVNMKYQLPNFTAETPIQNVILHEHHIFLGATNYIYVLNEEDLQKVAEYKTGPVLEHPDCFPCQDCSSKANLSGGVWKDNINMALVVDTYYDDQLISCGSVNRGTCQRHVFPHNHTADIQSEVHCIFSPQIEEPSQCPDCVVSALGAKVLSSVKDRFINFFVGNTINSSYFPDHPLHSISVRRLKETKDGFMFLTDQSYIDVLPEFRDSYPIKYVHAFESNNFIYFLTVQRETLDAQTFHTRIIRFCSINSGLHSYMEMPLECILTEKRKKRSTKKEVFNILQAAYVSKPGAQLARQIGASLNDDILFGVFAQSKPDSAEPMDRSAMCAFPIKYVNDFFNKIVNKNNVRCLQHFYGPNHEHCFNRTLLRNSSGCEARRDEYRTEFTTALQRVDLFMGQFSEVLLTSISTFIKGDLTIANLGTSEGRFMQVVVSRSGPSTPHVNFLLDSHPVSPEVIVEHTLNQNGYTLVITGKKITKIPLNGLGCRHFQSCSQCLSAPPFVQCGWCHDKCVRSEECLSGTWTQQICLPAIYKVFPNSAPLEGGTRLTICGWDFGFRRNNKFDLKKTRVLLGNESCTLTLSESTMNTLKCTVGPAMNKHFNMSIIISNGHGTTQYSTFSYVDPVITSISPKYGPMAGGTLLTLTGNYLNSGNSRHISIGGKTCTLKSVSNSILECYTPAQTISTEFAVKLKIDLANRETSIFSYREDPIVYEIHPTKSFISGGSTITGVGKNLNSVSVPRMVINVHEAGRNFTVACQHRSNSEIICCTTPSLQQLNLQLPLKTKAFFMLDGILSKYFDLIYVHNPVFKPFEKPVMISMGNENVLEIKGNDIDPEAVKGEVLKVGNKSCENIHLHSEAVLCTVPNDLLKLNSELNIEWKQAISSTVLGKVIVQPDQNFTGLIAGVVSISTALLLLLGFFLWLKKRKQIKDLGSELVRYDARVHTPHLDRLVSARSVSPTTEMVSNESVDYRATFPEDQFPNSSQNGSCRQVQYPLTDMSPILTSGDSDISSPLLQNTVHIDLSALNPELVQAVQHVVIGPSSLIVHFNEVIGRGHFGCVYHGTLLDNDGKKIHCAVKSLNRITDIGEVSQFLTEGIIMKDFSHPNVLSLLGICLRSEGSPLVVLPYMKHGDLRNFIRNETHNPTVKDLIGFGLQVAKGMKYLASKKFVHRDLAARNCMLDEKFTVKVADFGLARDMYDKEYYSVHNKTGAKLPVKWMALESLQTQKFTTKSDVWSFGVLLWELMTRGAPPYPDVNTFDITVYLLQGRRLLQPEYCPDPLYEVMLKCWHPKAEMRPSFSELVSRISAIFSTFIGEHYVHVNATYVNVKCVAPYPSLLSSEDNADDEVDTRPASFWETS
Chain of Hepatocyte growth factor receptor (Mus musculus) (P16056 whole entry): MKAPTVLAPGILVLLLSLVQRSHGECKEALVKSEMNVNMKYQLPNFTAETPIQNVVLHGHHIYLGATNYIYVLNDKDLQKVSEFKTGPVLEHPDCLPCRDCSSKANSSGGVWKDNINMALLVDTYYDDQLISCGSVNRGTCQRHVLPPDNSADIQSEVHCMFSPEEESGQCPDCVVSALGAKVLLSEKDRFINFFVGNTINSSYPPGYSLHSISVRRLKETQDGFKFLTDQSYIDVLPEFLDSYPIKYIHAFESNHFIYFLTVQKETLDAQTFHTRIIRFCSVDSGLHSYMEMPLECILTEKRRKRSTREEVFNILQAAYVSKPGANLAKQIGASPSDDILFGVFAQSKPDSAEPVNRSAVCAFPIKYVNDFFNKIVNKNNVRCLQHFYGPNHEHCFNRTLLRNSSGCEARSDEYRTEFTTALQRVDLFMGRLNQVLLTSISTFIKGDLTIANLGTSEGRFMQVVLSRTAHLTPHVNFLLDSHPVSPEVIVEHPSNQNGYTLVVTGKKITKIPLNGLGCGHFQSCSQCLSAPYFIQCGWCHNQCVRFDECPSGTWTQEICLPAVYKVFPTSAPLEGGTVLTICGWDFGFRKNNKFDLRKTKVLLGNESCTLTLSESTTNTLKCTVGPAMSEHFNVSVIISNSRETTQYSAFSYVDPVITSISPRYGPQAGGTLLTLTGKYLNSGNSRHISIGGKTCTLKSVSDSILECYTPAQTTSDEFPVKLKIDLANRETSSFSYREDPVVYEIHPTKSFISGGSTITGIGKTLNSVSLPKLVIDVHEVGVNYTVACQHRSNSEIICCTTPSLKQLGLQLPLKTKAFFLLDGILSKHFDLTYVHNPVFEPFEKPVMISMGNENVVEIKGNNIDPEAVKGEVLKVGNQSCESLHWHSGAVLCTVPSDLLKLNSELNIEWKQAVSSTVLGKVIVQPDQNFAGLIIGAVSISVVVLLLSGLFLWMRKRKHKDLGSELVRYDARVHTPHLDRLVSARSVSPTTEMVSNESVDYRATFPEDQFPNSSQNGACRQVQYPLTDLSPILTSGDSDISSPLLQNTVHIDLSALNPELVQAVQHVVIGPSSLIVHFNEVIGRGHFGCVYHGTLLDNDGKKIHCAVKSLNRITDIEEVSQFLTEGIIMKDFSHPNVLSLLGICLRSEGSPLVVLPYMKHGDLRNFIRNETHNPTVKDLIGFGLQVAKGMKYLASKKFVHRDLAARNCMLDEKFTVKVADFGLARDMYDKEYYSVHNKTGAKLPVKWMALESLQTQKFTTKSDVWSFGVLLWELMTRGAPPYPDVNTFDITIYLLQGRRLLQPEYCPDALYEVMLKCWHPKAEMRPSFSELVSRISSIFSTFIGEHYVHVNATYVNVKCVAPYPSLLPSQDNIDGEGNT
Chain of Voltage-gated inwardly rectifying potassium channel KCNH2 (Q12809 whole entry): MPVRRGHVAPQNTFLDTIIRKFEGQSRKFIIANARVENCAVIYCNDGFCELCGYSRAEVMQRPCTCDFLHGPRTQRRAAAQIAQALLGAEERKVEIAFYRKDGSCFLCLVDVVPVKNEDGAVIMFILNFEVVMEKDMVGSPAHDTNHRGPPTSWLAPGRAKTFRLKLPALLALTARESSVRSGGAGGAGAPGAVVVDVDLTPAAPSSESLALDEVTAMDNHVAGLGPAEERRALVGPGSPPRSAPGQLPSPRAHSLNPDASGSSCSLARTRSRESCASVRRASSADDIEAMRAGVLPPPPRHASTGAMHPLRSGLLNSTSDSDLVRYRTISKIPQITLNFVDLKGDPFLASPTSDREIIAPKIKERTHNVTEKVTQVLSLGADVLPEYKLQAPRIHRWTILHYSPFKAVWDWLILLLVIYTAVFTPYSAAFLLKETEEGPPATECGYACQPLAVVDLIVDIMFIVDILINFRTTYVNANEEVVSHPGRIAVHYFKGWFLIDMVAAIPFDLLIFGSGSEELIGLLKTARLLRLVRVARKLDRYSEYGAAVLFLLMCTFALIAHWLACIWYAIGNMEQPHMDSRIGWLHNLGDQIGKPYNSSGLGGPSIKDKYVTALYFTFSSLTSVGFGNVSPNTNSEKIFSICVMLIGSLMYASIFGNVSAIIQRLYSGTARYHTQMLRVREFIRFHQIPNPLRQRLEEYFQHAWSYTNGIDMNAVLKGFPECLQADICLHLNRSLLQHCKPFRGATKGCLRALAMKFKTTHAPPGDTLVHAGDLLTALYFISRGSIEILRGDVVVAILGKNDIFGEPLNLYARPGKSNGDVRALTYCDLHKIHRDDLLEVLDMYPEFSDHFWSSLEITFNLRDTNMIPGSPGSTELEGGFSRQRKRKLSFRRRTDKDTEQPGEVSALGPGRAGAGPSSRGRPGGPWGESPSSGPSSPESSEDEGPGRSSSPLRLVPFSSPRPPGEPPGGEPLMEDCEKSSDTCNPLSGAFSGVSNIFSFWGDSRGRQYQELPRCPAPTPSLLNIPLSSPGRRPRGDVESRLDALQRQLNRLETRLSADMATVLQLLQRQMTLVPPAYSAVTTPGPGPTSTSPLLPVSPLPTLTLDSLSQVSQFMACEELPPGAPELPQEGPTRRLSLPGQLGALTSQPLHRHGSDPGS
Chain of Cytochrome P450 2D6 (P10635 whole entry): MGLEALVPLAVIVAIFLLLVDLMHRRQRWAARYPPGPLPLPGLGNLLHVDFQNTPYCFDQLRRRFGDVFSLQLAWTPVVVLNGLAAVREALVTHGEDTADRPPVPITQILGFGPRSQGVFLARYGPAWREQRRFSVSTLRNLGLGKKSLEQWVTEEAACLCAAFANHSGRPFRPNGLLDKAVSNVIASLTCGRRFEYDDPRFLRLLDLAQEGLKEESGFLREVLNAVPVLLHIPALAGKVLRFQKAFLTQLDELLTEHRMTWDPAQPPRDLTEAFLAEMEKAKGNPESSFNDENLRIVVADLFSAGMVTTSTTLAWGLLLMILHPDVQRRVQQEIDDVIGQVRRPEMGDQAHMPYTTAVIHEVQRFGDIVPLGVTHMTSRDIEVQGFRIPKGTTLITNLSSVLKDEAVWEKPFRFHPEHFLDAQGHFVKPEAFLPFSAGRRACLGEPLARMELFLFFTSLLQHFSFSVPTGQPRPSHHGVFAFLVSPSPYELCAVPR

## COC(=O)c1ccc(-c2ccc(=O)n(CCc3ccc4ncc(-c5cnn(C)c5)cc4c3)n2)cc1C(F)(F)F
[1]
  IC50: 102 nM
[2]
  IC50: 4 nM

## Cc1ccc(-c2ccc(=O)n(CCc3ccc4ncc(-c5cnn(C)c5)cc4c3)n2)cc1
[1]
  IC50: 281 nM
[2]
  IC50: 8.2 nM

## Cn1cc(-c2cnc3ccc(CCn4nc(-c5cccc(N)c5)ccc4=O)cc3c2)cn1
[1]
  IC50: 623 nM
[2]
  IC50: 8.7 nM

## CNC(=O)c1ccc(-c2ccc(=O)n(CCc3ccc4ncc(N5CCC(N6CCOCC6)CC5)cc4c3)n2)cc1C(F)(F)F
[1]
  IC50: 93.4 nM
[2]
  IC50: 13.2 nM

## Cn1cc(-c2cnc3ccc(CCn4nc(-c5ccc(F)cc5)ccc4=O)cc3c2)cn1
[1]
  IC50: 488 nM
[2]
  IC50: 18.3 nM

## Cn1cc(-c2cnc3ccc(CCn4nc(-c5cccc(OC(F)(F)F)c5)ccc4=O)cc3c2)cn1
[1]
  IC50: 1440 nM
[2]
  IC50: 20.4 nM

## CNC(=O)c1ccc(-c2ccc(=O)n(CCc3ccc4ncc(-c5cnn(CCOC)c5)cc4c3)n2)cc1C(F)(F)F
[1]
  IC50: 45.9 nM
[2]
  IC50: 7.4 nM

## O=C1NCCCCn2cc(cn2)-c2cnc3ccc(cc3c2)CCn2nc(ccc2=O)-c2ccc1c(C(F)(F)F)c2
[3]
  viability at 0.01 µM: 87%
[4]
  IC50: 401 nM
[5]
  Tmax: 15 min
[6]
  half-life: 34.2 min
[7]
  AUC(0-t) at 24 h: 484 ng·h/mL
[8]
  IC50: > 10000 nM
[9]
  Tmax: 4.8 min
[10]
  inhibition: Dde
[11]
  MRT last at 24 h: 21.6 min
[12]
  Vd: 3.47 L/kg
[13]
  MRT last at 24 h: 204 min
[14]
  Cmax: 61 ng/mL
[15]
  half-life: 278 min
[16]
  viability at 0.02 µM: 75.4%
[17]
  Tmax: 15 min
[18]
  bioavailability: 2.02%
[19]
  viability at 0.04 µM: 42.9%
[20]
  Papp A→B at 2 h, 10 µM: 0.53 ×10⁻⁶ cm/s
[21]
  IC50: > 10000 nM
[22]
  IC50: 27700 nM
[2]
  IC50: 2.9 nM
[23]
  inhibition: Dde
[24]
  bioavailability: 33.9%
[25]
  Cmax: 1070 ng/mL
[26]
  AUC(0-t) at 24 h: 820 ng·h/mL
[27]
  half-life: 149 min
[28]
  Cmax: 282 ng/mL
[29]
  clearance: 70.1 mL/min/kg
[30]
  MRT last at 24 h: 103 min
[31]
  AUC(0-t) at 24 h: 48.9 ng·h/mL
[32]
  IC50: > 10000 nM

## CNC(=O)c1ccc(-c2ccc(=O)n(CC(F)(F)c3ccc4ncc(-c5cnn(C)c5)cc4c3)n2)cc1C(F)(F)F
[1]
  IC50: 38.5 nM
[2]
  IC50: 9.9 nM

## Cn1cc(-c2cnc3ccc(CCn4nc(-c5cccc(Cl)c5)ccc4=O)cc3c2)cn1
[1]
  IC50: 303 nM
[2]
  IC50: 4.9 nM
